Active and inactive are the calls of the source. The calls are words filed in the database; no cut-off is given here. Square brackets hold non-standard residues; d marks the D form. Peptide text beside a SMILES is read from it. * marks the point of attachment. Pro(trans-4-F) = O=C(O)[C@@H]1C[C@@H](F)CN1; Dansyl = CN(C)c1cccc2c(S(=O)(=O)*)cccc12; Pro(cis-4-F) = O=C(O)[C@@H]1C[C@H](F)CN1; Hyp = O=C(O)[C@@H]1C[C@@H](O)CN1; hPhe = N[C@@H](CCc1ccccc1)C(=O)O; 2Pal = N[C@@H](Cc1ccccn1)C(=O)O; 3Pal = N[C@@H](Cc1cccnc1)C(=O)O; 4Pal = N[C@@H](Cc1ccncc1)C(=O)O; Tic = O=C(O)[C@@H]1Cc2ccccc2CN1; Tle = CC(C)(C)[C@H](N)C(=O)O; Pip = O=C(O)[C@@H]1CCCCN1; Ac5c = NC1(C(=O)O)CCCC1
Columns and labels:
[1] = target: T1, Peptidyl-prolyl cis-trans isomerase FKBP4 (Homo sapiens, UniProt Q02790); assay: Binding affinity to FKBP52 FK1 domain (1 to 148 residues) (unknown origin) by isothermal calorimetric analysis
T1 sequence (Q02790 whole entry): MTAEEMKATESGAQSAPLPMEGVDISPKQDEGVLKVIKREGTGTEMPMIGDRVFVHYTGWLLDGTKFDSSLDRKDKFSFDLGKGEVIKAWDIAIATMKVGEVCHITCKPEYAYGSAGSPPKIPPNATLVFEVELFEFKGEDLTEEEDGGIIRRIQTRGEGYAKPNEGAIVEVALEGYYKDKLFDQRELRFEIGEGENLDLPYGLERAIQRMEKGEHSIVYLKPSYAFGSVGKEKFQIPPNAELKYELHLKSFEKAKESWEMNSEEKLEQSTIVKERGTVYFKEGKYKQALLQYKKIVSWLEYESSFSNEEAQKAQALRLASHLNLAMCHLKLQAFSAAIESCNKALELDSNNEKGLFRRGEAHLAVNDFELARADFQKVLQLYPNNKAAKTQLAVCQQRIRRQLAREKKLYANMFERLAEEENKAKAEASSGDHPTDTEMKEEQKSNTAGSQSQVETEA

[2] = target: T2, Peptidyl-prolyl cis-trans isomerase FKBP4 (Homo sapiens) (UniProt Q02790); assay: Binding affinity to FKBP52 FK1 domain (1 to 148 residues) (unknown origin) at 10 uM by Dansyl fluorescence based assay
T2 sequence (whole entry): T1 sequence (Q02790 whole entry)

[3] = Solubility of the compound; format: physicochemical
[4] = target: T2, Peptidyl-prolyl cis-trans isomerase FKBP4 (Homo sapiens); assay: (§1) Binding affinity to FKBP52 FK1 domain (1 to 148 residues) (unknown origin) by Dansyl fluorescence based assay
[5] = target: T1, Peptidyl-prolyl cis-trans isomerase FKBP4; assay: as §1
[6] = target: T2, Peptidyl-prolyl cis-trans isomerase FKBP4 (Homo sapiens); assay: Binding affinity to FKBP52 FK1 domain (1 to 148 residues) (unknown origin) at 10 uM in presence of FK506 by Dansyl fluorescence based assay
[7] = target: T2, Peptidyl-prolyl cis-trans isomerase FKBP4 (Homo sapiens); assay: Binding affinity to FKBP52 FK1 domain (1 to 148 residues) (unknown origin) assessed as blue shift at 10 uM by Dansyl fluorescence based assay
[8] = target: T2, Peptidyl-prolyl cis-trans isomerase FKBP4 (Homo sapiens); assay: Binding affinity to FKBP52 FK1 domain (1 to 148 residues) (unknown origin) in PBS assessed as quenching of Trp emission at 10 to 20 uM by fluorimetric analysis
[9] = target: T1, Peptidyl-prolyl cis-trans isomerase FKBP4; assay: Binding affinity to FKBP52 FK1 domain (1 to 148 residues) (unknown origin) in PBS by fluorescence spectroscopy
[10] = target: T2, Peptidyl-prolyl cis-trans isomerase FKBP4 (Homo sapiens); assay: Binding affinity to FKBP52 FK2 domain (167 to 253 residues) (unknown origin) in PBS at 10 uM by Dansyl fluorescence based assay relative to control
[11] = target: T2, Peptidyl-prolyl cis-trans isomerase FKBP4 (Homo sapiens); assay: Binding affinity to FKBP52 FK1 domain (1 to 148 residues) (unknown origin) assessed as increase in fluorescence at 10 uM by Dansyl fluorescence based assay relative to control
[12] = target: T2, Peptidyl-prolyl cis-trans isomerase FKBP4 (Homo sapiens); assay: Binding affinity to FKBP52 FK1 domain (1 to 148 residues) (unknown origin) in PBS at 20 uM in presence of one equivalent FK506 by FRET assay
[13] = target: T2, Peptidyl-prolyl cis-trans isomerase FKBP4 (Homo sapiens); assay: Binding affinity to FKBP52 FK1 domain (1 to 148 residues) (unknown origin) in PBS assessed as induction of blue shift by measuring emission wavelength at 10 to 20 uM by fluorimetric analysis (reference value: 560 nm)

Structure (SMILES)	Kd [1] [µM]	further results
CN(C)c1cccc2c(S(=O)(=O)N3CCCC[C@H]3C(=O)N3CCCC[C@H]3C(=O)N[C@@H](CCCNC(=N)N)C(=O)O)cccc12 (Dansyl-[Pip]-[Pip]-Arg-OH)	1.1	–
CN(C)c1cccc2c(S(=O)(=O)N3CCCC[C@H]3C(=O)N[C@@H](CCc3ccccc3)C(=O)O)cccc12.O=C(O)C(F)(F)F (Dansyl-[Pip]-[hPhe]-OH)	–	Activity [2]: inactive; solubility [3]: Insoluble
CN(C)c1cccc2c(S(=O)(=O)N3CCCC[C@H]3C(=O)N[C@@H](Cc3ccncc3)C(=O)N[C@@H](CCCNC(=N)N)C(=O)O)cccc12 (Dansyl-[Pip]-[4Pal]-Arg-OH)	> 50	–
CN(C)c1cccc2c(S(=O)(=O)N3CCC[C@H]3C(N)=O)cccc12	–	Activity [4]: inactive
CN(C)c1cccc2c(S(=O)(=O)N3C[C@H](F)C[C@H]3C(=O)N[C@@H](CCc3ccccc3)C(=O)N[C@@H](CCCNC(=N)N)C(=O)O)cccc12 (Dansyl-[Pro(trans-4-F)]-[hPhe]-Arg-OH)	20	–
CN(C)c1cccc2c(S(=O)(=O)N3CCCC[C@H]3C(=O)N[C@H](C(=O)N[C@@H](CCCNC(=N)N)C(=O)O)C(C)(C)C)cccc12 (Dansyl-[Pip]-[Tle]-Arg-OH)	2.9	–
CN(C)c1cccc2c(S(=O)(=O)N3C[C@@H](F)C[C@H]3C(=O)N[C@@H](CCc3ccccc3)C(=O)N[C@@H](CCCNC(=N)N)C(=O)O)cccc12 (Dansyl-[Pro(cis-4-F)]-[hPhe]-Arg-OH)	1.3	–
CN(C)c1cccc2c(S(=O)(=O)N3CCCC[C@H]3C(=O)N3Cc4ccccc4C[C@H]3C(=O)N[C@@H](CCCNC(=N)N)C(=O)O)cccc12 (Dansyl-[Pip]-[Tic]-Arg-OH)	> 50	–
CN(C)c1cccc2c(S(=O)(=O)N3C[C@H](O)C[C@H]3C(=O)N[C@@H](CCc3ccccc3)C(=O)N[C@@H](CCCNC(=N)N)C(=O)O)cccc12 (Dansyl-[Hyp]-[hPhe]-Arg-OH)	> 50	–
CN(C)c1cccc2c(S(=O)(=O)N3CCC[C@H]3C(=O)N[C@@H](CCc3ccccc3)C(=O)N[C@@H](CCCNC(=N)N)C(=O)O)cccc12	5	–
CCCCN(CC(=O)N[C@@H](CCc1ccccc1)C(=O)N[C@@H](CCCNC(=N)N)C(=O)O)S(=O)(=O)c1cccc2c(N(C)C)cccc12	> 50	–
CN(C)c1cccc2c(S(=O)(=O)N3Cc4ccccc4C[C@H]3C(=O)N[C@@H](CCc3ccccc3)C(=O)N[C@@H](CCCNC(=N)N)C(=O)O)cccc12 (Dansyl-[Tic]-[hPhe]-Arg-OH)	–	Kd [5]: > 50 µM
CN(C)c1cccc2c(S(=O)(=O)N3CCCC[C@H]3C(=O)N[C@@H](CCc3ccccc3)C(=O)N[C@@H](CCCNC(=N)N)C(=O)O)cccc12 (Dansyl-[Pip]-[hPhe]-Arg-OH)	1.6	Activity [6]: inactive; Activity [7]: 30 nm; Activity [8]: 67%; Kd [9]: 4.6 µM; Activity [10]: inactive; fold change (FC) [11]: 4; Activity [12]: inactive; Activity [13]: 537 nm
CN(C)c1cccc2c(S(=O)(=O)N3CCCC[C@H]3C(=O)N[C@@H](Cc3cccnc3)C(=O)N[C@@H](CCCNC(=N)N)C(=O)O)cccc12 (Dansyl-[Pip]-[3Pal]-Arg-OH)	3	–
CN(C)c1cccc2c(S(=O)(=O)N3CCCC[C@H]3C(=O)NC3(C(=O)N[C@@H](CCCNC(=N)N)C(=O)O)CCCC3)cccc12 (Dansyl-[Pip]-[Ac5c]-Arg-OH)	10	–
CN(C)c1cccc2c(S(=O)(=O)N3CCCC[C@H]3C(=O)N[C@@H](Cc3ccccn3)C(=O)N[C@@H](CCCNC(=N)N)C(=O)O)cccc12 (Dansyl-[Pip]-[2Pal]-Arg-OH)	3.5	–
CN(C)c1cccc2c(S(=O)(=O)N3CCCC[C@H]3C(=O)N[C@@H](Cc3ccccc3)C(=O)N[C@@H](CCCNC(=N)N)C(=O)O)cccc12 (Dansyl-[Pip]-Phe-Arg-OH)	5.8	–
CN(C)c1cccc2c(S(=O)(=O)N3CCC[C@@H]3C(=O)N[C@@H](CCc3ccccc3)C(=O)N[C@@H](CCCNC(=N)N)C(=O)O)cccc12	> 50	–
CN(C)c1cccc2c(S(=O)(=O)N3CCCC[C@H]3C(=O)N[C@@H](Cc3c[nH]c4ccccc34)C(=O)N[C@@H](CCCNC(=N)N)C(=O)O)cccc12 (Dansyl-[Pip]-Trp-Arg-OH)	–	Kd [5]: 20 µM
CN(C)c1cccc2c(S(=O)(=O)N3[C@H](C(=O)N[C@@H](CCc4ccccc4)C(=O)N[C@@H](CCCNC(=N)N)C(=O)O)CCC3(C)C)cccc12	–	Kd [5]: > 50 µM
